Data taken from PubChem BioAssay (NCI).
Where “and” joins values, the source holds several entries; their conditions need not be identical. Equal values may be shown once.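 A five-concentration, 48-hour dose response in 96-well plates underlies each endpoint, interpolated linearly between surrounding concentrations. Here, GI50 denotes the concentration required for 50% inhibition of growth. TGI is the concentration that stops growth completely.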

What was measured:
Assay in all cases: inhibition of tumour cell growth, NCI panel, 48 h
[1] = tested on: MDA-MB-435
[2] = tested on: OVCAR-3 ovarian
[3] = tested on: PC-3 prostate
[4] = tested on: SNB-75 CNS
[5] = tested on: HCT-116 colon
[6] = tested on: DMS 114 small cell lung
[7] = tested on: XF 498 CNS
[8] = tested on: DMS 273 small cell lung

SMILES	GI50 [1]	TGI [1]	GI50 [2]	TGI [2]	GI50 [3]	TGI [3]	GI50 [4]	TGI [4]	GI50 [5]	TGI [5]	TGI [6]	TGI [7]	TGI [8]
N/C(=N\OC(=O)c1ccccc1)C(C(=O)NOC(=O)c1ccccc1)C1CCCCC1 (configuration not stated)	2.21 µM	5.59 µM	4.56 µM	15.9 µM	6.33 µM	20.5 µM	2.79 µM	11.9 µM	3.45 µM	13 µM			
CS(=O)(=O)c1ccc(Cl)c([N+](=O)[O-])c1	18.9 µM	38.4 µM	17.8 µM	32.5 µM	19.1 µM	37.5 µM	15.3 µM	29.5 µM	12.9 µM	25.7 µM			
COc1cc(Nc2ccnc(N3CCN(c4ccnc5cc(Cl)ccc45)CC3)n2)cc(OC)c1	0.209 µM	0.626 µM	2.53 µM	> 28.9 µM	1.4 µM	> 100 µM	1.95 µM	6.81 µM	0.496 µM	10.3 µM			
CCc1nc(N)nc(N)c1-c1ccc([N+](=O)[O-])c(NCc2ccccc2)c1		38.3 µM		36.6 µM		39.9 µM		35.4 µM		> 47.3 µM			
Cc1cc2c(C(C)C)c(O)c(O)c(C=Nc3cc(C(F)(F)F)ccc3Cl)c2c(O)c1-c1c(C)cc2c(C(C)C)c(O)c(O)c(C=Nc3cc(C(F)(F)F)ccc3Cl)c2c1O		86 µM		> 100 µM		> 100 µM				> 100 µM			
C/C(=N\O)c1ccc(Nc2cc(-n3nnc4ccccc43)nc3ccccc23)cc1	8.86 µM	> 28.3 µM	16.3 µM	43.1 µM	4.5 µM	20.5 µM	22.8 µM	99.2 µM	7.64 µM	23.7 µM			
O=C(CC(C(=O)c1cccs1)c1ccc2c(c1)OCO2)c1ccc(Br)cc1 (configuration not stated)		> 100 µM				> 100 µM		> 100 µM					
Nc1c(C(=O)Nc2ccc([As](=O)(O)O)cc2)cnc2nnnn12		> 100 µM		> 100 µM		> 100 µM		> 100 µM		> 100 µM			
CC(O)CNC1=CC(=O)C(=O)c2ccccc21 (configuration not stated)		23.9 µM		13.4 µM		> 100 µM		29.8 µM		33.9 µM			
C/C(=N/N(C=O)C[n+]1ccccc1)C(CN(CC(C)C)CC(C)C)C(=O)Nc1ccc(C)cc1C (configuration not stated)				> 100 µM						> 100 µM	> 100 µM		
COc1ccc(Cl)cc1Nc1nc(C(F)(F)F)ccc1C(=O)NN	9.08 µM	> 100 µM	0.615 µM	> 24.5 µM	2.84 µM	> 100 µM	16.6 µM	> 100 µM	4.76 µM	> 100 µM			
NS(=O)(=O)c1ccc(N2Cc3cc(Cl)ccc3OC3=C2C(=O)N(CC2CCCCC2)C3=O)cc1	0.903 µM	2.23 µM	0.207 µM	0.429 µM	0.519 µM	2.09 µM	0.784 µM	2.13 µM	0.208 µM	0.44 µM			
Clc1ccccc1NN(Cc1ccccn1)c1ccccc1Cl		34.9 µM		32.9 µM		> 100 µM		41.7 µM		28.8 µM			
COc1ccc(OC)c(-c2cc(-c3ccccc3)nn2-c2ccc(S(=O)(=O)NC(C)=O)cc2)c1	5.77 µM	22.9 µM	2.82 µM	9.55 µM	6.08 µM	20.6 µM							
CN1CCCN(CCNc2nccc(-c3c(-c4cccc(O)c4)nc4sccn34)n2)S1(=O)=O	0.285 µM and 0.438 µM	20.6 µM and > 71.8 µM	13.7 µM and 7.69 µM	75 µM and 99 µM	16.3 µM and 14.6 µM	75 µM and > 100 µM	1.47 µM and 2.19 µM	75 µM and > 100 µM	2.96 µM and 4.39 µM	14.9 µM and 18.8 µM			
O=c1oc2ccccc2c(O)c1C=NC(=S)c1ccncc1		> 100 µM		> 100 µM		> 100 µM		> 100 µM		> 100 µM			
COc1cc(-c2oc3ccccc3c(=O)c2O)cc(OC)c1OC		> 100 µM		> 100 µM		> 100 µM		25.6 µM		> 100 µM			
Cn1cc(C2=C(c3cn(C)c4ccc(N)cc34)C(=O)NC2=O)c2ccccc21	0.729 µM	> 25 µM	4.79 µM	16 µM	9 µM	> 25 µM	1.63 µM	> 21.2 µM	6.65 µM	> 25 µM			
COc1ccc(-c2cc(-c3ccc(Cl)cc3)c(C#N)c(=O)n2CCCCC(=O)Nc2ccccc2N)cc1	5.8 µM	> 100 µM	13.5 µM	56.6 µM	6.18 µM	95.9 µM			3.25 µM	20.7 µM			
Cc1nc2c(n1CC(C)(C)C)C(=O)c1ccccc1C2=O				> 100 µM				> 100 µM		> 100 µM		> 100 µM	> 100 µM
O=C1[C@@H](c2ccc(Cl)cc2)[C@H]2CC=C[C@H]2N1O				> 100 µM				> 100 µM			> 100 µM	> 100 µM	> 100 µM
Fc1cccc(COc2ccc(Nc3ncnc4sc(-c5ccco5)cc34)cc2Cl)c1	> 25 µM	> 25 µM	> 25 µM	> 25 µM	> 25 µM	> 25 µM	> 25 µM	> 25 µM	> 25 µM	> 25 µM			
COC(=O)C1=C(OC(=O)c2ccc(Cl)cc2)C(C(=O)OC)[C@@]2(O)[C@@H](C(=O)OC)C(c3ccccc3C(F)(F)F)C[C@@H]1[C@@H]2C(=O)OC (some centres not stated)	17.6 µM	50.2 µM	20.3 µM	47.9 µM	4.5 µM	> 100 µM			2.92 µM	11.4 µM			
CC(C)n1c(/C=C/[C@@H](O)C[C@@H](O)CC(=O)O)c(-c2ccc(F)cc2)c2ccccc21	10.5 µM and 14.4 µM	> 100 µM	12.2 µM and 15 µM	46.7 µM and > 100 µM	0.371 µM and 0.65 µM	> 100 µM	1.43 µM and 0.859 µM	> 100 µM	1.12 µM and 1.56 µM	11.1 µM and > 100 µM			
S=C(N/N=C/c1cc(Cl)cc(Cl)c1)NC12CC3CC(CC(C3)C1)C2	> 27.6 µM	> 100 µM	6.03 µM	> 100 µM	> 30.2 µM	> 100 µM	2 µM	5.46 µM	5.24 µM	> 100 µM			
